Results reported in patent EP4678643A1, “KRAS INHIBITOR COMPOUND, PHARMACEUTICAL COMPOSITION THEREOF, AND USE THEREOF” (Sunshine Lake Pharma Co., Ltd., priority 2023, dated 2024).
Read-outs that look alike come from different tables or passages of the source.

Test system: pERK in AGS cells (KRAS G12D)
Assay: Inhibitory effect on intracellular pERK by In-Cell Western assay, AGS
Type: cell-based
Conditions: pERK inhibition, compound incubation 3 h, read-out: AGS, IC50 (nM) KRAS p.G12D
Procedure: 1. Determination of Inhibitory Effect on Intracellular pERK by In-Cell Western Assay
(1) On the first day, the following cells were revived and cultured with the corresponding culture medium and incubated at 37 °C, 5% CO2 until confluence.
(2) On the third day, the culture medium was removed, the cells were rinsed once with DPBS, 2 mL of TrypLE™ trypsin was added for digestion, and the cells were placed at room temperature until the cells detached. (3) 5 mL fresh culture medium was added to resuspend cells to terminate the digestion, and the cells were gently pipetted and centrifuged at 1000 rpm for 5 minutes at room temperature. (4) The supernatant was removed, and 5 mL fresh culture medium was added to resuspend the cells and count cells. (5) The cells were plated in a 384-well plate with appropriate cell concentration by adjusting with complete culture medium and incubated at 37 °C, 5% CO2 for overnight. (6) 200 nL of the prepared serial dilution compound (DMSO final concentration was 0.5%) was added and incubated at 37 °C, CO2 for 3 h (HPAC cell lines for 1 h). (7) The cells were fixed. (8) The cells were washed twice with PBS. (9) The blocking solution was added and the cells were incubated at room temperature for 1 h. (10) The blocking solution was removed, and the primary antibody (phospho-ERK Rabbit mAb + GAPDH (D4C6R) Mouse mAb) was added and the cells were incubated at 4 °C for overnight. (11) The cells were washed twice with PBST (PBS + 0.05% Tween 20) for 2 minutes each time. (12) PBST was removed and secondary antibody (IRDye 800CW Goat anti-Rabbit IgG (H+L) + IRDye 680RD Goat anti Mouse IgG (H+L)) was added and incubated away from light at room temperature. (14) Secondary antibody was discarded and the cell was washed twice with PBST, 2 minutes each time. (15) 384-well plate was inverted and centrifuged at 1000 rpm at room temperature for 1 minute, and the 384-well plate was scanned with Odyssey CLx.

| SMILES | IC50 (Homo sapiens, AGS, 3 h) | other results |
| --- | --- | --- |
| CCC#Cc1nc(-c2cc(O)cc3ccc(F)c(CC)c23)c(F)c2nc(OC[C@@]34CCCN3C[C@H](F)C4)nc(N3CCCOCC3)c12 [Compound 4] | 7.5 nM |  |
| C#Cc1c(F)ccc2cc(O)cc(-c3nc(C#CCOC4CCC4)c4c(N5CCCOCC5)nc(OC[C@@]56CCCN5C[C@H](F)C6)nc4c3F)c12 [Compound 5] | 8.6 nM |  |
| C#Cc1nc(-c2cc(O)cc3ccc(F)c(CC)c23)c(F)c2nc(OC[C@@]34CCCN3C[C@H](F)C4)nc(N3CCCOCC3)c12 [Compound 8] | 7.1 nM |  |
| C#Cc1nc(-c2cc(O)cc3cccc(Cl)c23)c(F)c2nc(OC[C@@]34CCCN3C[C@H](F)C4)nc(N3CCCOCC3)c12 [Compound 9] | 17.2 nM |  |
| C#Cc1c(F)ccc2cc(O)cc(-c3nc(C#CC)c4c(N5CCCOCC5)nc(OCC56CCCN5CC(F)C6)nc4c3F)c12 (stereo not shown) [Compound 17] |  | IC50: 0.8 nM |
| C#Cc1c(F)ccc2cc(N)cc(-c3nc(C#CC)c4c(N5CCCOCC5)nc(OC[C@@]56CCCN5C[C@H](F)C6)nc4c3F)c12 [Compound 22] | 2.8 nM |  |
| CC#Cc1nc(-c2cc(O)cc3cccc(Cl)c23)c(F)c2nc(OC[C@@]34CCCN3C[C@H](F)C4)nc(N3CCCOCC3)c12 [Compound 23] | 6.1 nM |  |
| CC#Cc1nc(-c2cc(O)cc3cccc(F)c23)c(F)c2nc(OC[C@@]34CCCN3C[C@H](F)C4)nc(N3CCCOCC3)c12 [Compound 24] |  | IC50 (Homo sapiens, AGS): 5.4 nM |
| C#Cc1c(F)ccc2cc(O)cc(-c3nc(C#CCC)c4c(N5CCCCCC5)nc(OC[C@@]56CCCN5C[C@H](F)C6)nc4c3F)c12 [Compound 30] | 6.8 nM |  |
| CCC#Cc1nc(-c2cc(O)cc3ccc(F)c(CC)c23)c(F)c2nc(OC[C@@]34CCCN3C[C@H](F)C4)nc(N3CCCCC(=O)C3)c12 [Compound 33] | 4.1 nM |  |
| CC#Cc1nc(-c2cc(O)cc3ccc(F)c(CC)c23)c(F)c2nc(OCC34CCCN3CCC4)nc(N3CCCCC(=O)C3)c12 [Compound 35] | 4.4 nM |  |

Second part, led by results:

| IC50 (Homo sapiens, AGS, 3 h) | SMILES | other results |
| --- | --- | --- |
| 5.8 nM | C#Cc1c(F)ccc2cc(O)cc(-c3nc(C#CC)c4c(N5CCCOCC5)nc(OC[C@@H]5CCCN5C)nc4c3F)c12 [Compound 12] |  |
| 1.2 nM | C#Cc1c(F)ccc2cc(O)cc(-c3nc(C#CC)c4c(N5CCCOCC5)nc(OCC56CC(=C)CN5CC(=C)C6)nc4c3F)c12 [Compound 14] |  |
| 15 nM | C#Cc1c(F)ccc2cc(O)cc(-c3nc(C#CC)c4c(N5CCCOCC5)nc(OCC56CCCN5CC(F)(F)C6)nc4c3F)c12 (stereo not shown) [Compound 15] |  |
| 8.1 nM | C#Cc1c(F)ccc2cc(O)cc(-c3nc(C#CC)c4c(N5CCCOCC5)nc(OC[C@@H]5C[C@@H](F)CN5C)nc4c3F)c12 [Compound 16] |  |
| 6.4 nM | C#Cc1c(F)ccc2cc(O)cc(-c3nc(C#CC)c4c(N5CCCOCC5)nc(OCC5(CN6CCOCC6)CC5)nc4c3F)c12 [Compound 19] |  |
